Tested on: Aβ42 production and/or release from SM-4 cells
Experiment: Aβ42 ELISA of culture media from SM-4 cells
Format: cell-based
Conditions: 16 hrs
Experimental: Cell Lines and Pharmacological Treatments. 293 EBNA cells (InVitrogen, Carlsbad, Calif.) stably transfected with Swedish mutant β-Amyloid Precursor Protein -695 (SM4 cells) were routinely maintained in DMEM supplemented with sodium pyruvate (1 mM) and 10% fetal bovine serum. Cells were seeded into poly-D-Lysine (SIGMA) coated 6-well plates at a density of 5-7×10^5 cells per well. Subsequently, the cells were rinsed in 1 ml of PBS and treated with 10-500 μM of pirinixic acid in serum-free/phenol red-free DMEM for 16 hours.
(§1) Aβ Detection and Standardization. After the pharmacological treatment, the exposure media was collected and supplemented with 10% sample treatment buffer (40 mM sodium phosphate (pH 7.4), 40 mM triethanolamine, 0.1% Triton X-100, 200 mM NaCl, 2 mM EGTA, 0.1% Sodium azide), and assayed for either Aβ40 or Aβ42 by a calorimetric ELISA as per the manufacturer's protocol (Biosource International Inc, California). The cells were lysed in 0.1% Triton X-100 in PBS supplemented with 5 μM propridium iodide (Molecular Probes, Eugene, Oreg.) and incubated at 37° C. for 30 minutes prior to measuring fluorescence. Aβ40 and Aβ42 were standardized against propridium iodide fluorescence as a measure of total cell number. […]
as §1, with “After” for “Aβ Detection and Standardization. After”
After the pharmacological treatment, the exposure media was collected and supplemented with 10% sample treatment buffer (40 mM sodium phosphate (pH 7.4), 40 mM triethanolamine, 0.1% Triton X-100, 200 mM NaCl, 2 mM EGTA, 0.1% Sodium azide), and assayed for either Aβ40 or Aβ42 by a colorimetric ELISA as per the manufacturer's protocol (Biosource International Inc, California). The cells were lysed in 0.1% Triton X-100 in PBS supplemented with 5 μM propridium iodide (Molecular Probes, Eugene, Oreg.) and incubated at 37° C. for 30 minutes prior to measuring fluorescence. Aβ40 and Aβ42 were standardized against propridium iodide fluorescence as a measure of total cell number.

## Cc1cccc(Nc2cc(Cl)nc(SCC(=O)O)n2)c1C [pirinixic acid]
50 μM, p<0.001
  decrease in Aβ42: 15%
500 μM
  decrease in Aβ42: 60%

From patent US20030191144A1, “Compounds, compositions and methods for modulating beta-amyloid production” (Active Pass Pharmaceuticals, Inc., priority 2001, published 2003)
